What was measured:
Assay in all cases: relative viability (nuclei count vs DMSO), 5 days (fraction); higher = more cells survive
Ispinesib + Navitoclax = compound: Cc1ccc(C(=O)N(CCCN)[C@@H](c2nc3cc(Cl)ccc3c(=O)n2Cc2ccccc2)C(C)C)cc1 [Ispinesib] + CC1(C)CCC(c2ccc(Cl)cc2)=C(CN2CCN(c3ccc(C(=O)NS(=O)(=O)c4ccc(N[C@H](CCN5CCOCC5)CSc5ccccc5)c(S(=O)(=O)C(F)(F)F)c4)cc3)CC2)C1 [Navitoclax] (partner 0.5 µM)
Outline: (§1)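 Lung cancer cell lines in 1536-well plates got either a single drug or a fixed anchor-drug dose together with five library-drug doses (not always all listed) in √10 steps, by pin tool, on the day after seeding. Nuclei were counted after 5 days, and relative viability is the treated-to-vehicle ratio of nuclei counts. Values are medians of duplicate plates.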

Linsitinib + Foretinib = compound: C[C@]1(O)C[C@@H](c2nc(-c3ccc4ccc(-c5ccccc5)nc4c3)c3c(N)nccn32)C1 [Linsitinib] + COc1cc2c(Oc3ccc(NC(=O)C4(C(=O)Nc5ccc(F)cc5)CC4)cc3F)ccnc2cc1OCCCN1CCOCC1 [Foretinib] (partner 0.25 µM)
Outline: as §1

Ispinesib + Linsitinib = compound: Cc1ccc(C(=O)N(CCCN)[C@@H](c2nc3cc(Cl)ccc3c(=O)n2Cc2ccccc2)C(C)C)cc1 [Ispinesib] + C[C@]1(O)C[C@@H](c2nc(-c3ccc4ccc(-c5ccccc5)nc4c3)c3c(N)nccn32)C1 [Linsitinib] (partner 1 µM)
Outline: as §1

Linsitinib + Bortezomib = compound: C[C@]1(O)C[C@@H](c2nc(-c3ccc4ccc(-c5ccccc5)nc4c3)c3c(N)nccn32)C1 [Linsitinib] + CC(C)C[C@H](NC(=O)[C@H](Cc1ccccc1)NC(=O)c1cnccn1)B(O)O [Bortezomib] (partner 0.002 µM)
Outline: as §1

Row | Cell Line | relative viability (Ispinesib + Navitoclax; first compound 0.001 µM) | relative viability (Ispinesib + Navitoclax; first compound 0.003162 µM) | relative viability (Ispinesib + Navitoclax; first compound 0.01 µM) | relative viability (Ispinesib + Navitoclax; first compound 0.03162 µM) | relative viability (Ispinesib + Navitoclax; first compound 0.1 µM) | relative viability (Linsitinib + Foretinib; first compound 0.01 µM) | relative viability (Linsitinib + Foretinib; first compound 0.03162 µM) | relative viability (Linsitinib + Foretinib; first compound 0.1 µM) | relative viability (Linsitinib + Foretinib; first compound 0.3162 µM) | relative viability (Linsitinib + Foretinib; first compound 1 µM) | relative viability (Ispinesib + Linsitinib; first compound 0.001 µM) | relative viability (Ispinesib + Linsitinib; first compound 0.003162 µM) | relative viability (Ispinesib + Linsitinib; first compound 0.01 µM) | relative viability (Ispinesib + Linsitinib; first compound 0.03162 µM) | relative viability (Ispinesib + Linsitinib; first compound 0.1 µM) | relative viability (Linsitinib + Bortezomib; first compound 0.01 µM) | relative viability (Linsitinib + Bortezomib; first compound 0.03162 µM) | relative viability (Linsitinib + Bortezomib; first compound 0.1 µM) | relative viability (Linsitinib + Bortezomib; first compound 0.3162 µM) | relative viability (Linsitinib + Bortezomib; first compound 1 µM)
1 | EMC-BAC-2 | 1.2 | 1.35 | 1.28 | 1.08 | 0.758 | 0.95 | 0.979 | 1.1 | 0.907 | 0.819 | 0.831 | 0.847 | 0.858 | 0.614 | 0.487 | 1.08 | 1.05 | 1.01 | 0.628 | 0.917
2 | NCI-H2023 | 1.07 | 1.09 | 1.1 | 0.837 | 0.21 | 0.864 | 0.546 | 0.835 | 0.512 | 0.515 | 0.79 | 0.74 | 0.627 | 0.439 | 0.149 | 0.876 | 0.724 | 1 | 0.239 | 0.602
3 | EKVX | 1.07 | 0.964 | 1.06 | 0.75 | 0.22 | 0.988 | 0.358 | 0.779 | 0.252 | 0.686 | 1.15 | 1.05 | 1.17 | 0.927 | 0.454 | 1.12 | 1.02 | 1.07 | 0.9 | 0.852
4 | NCI-H2085 | 1.12 | 1.17 | 1.19 | 1.13 | 0.672 | 0.883 | 0.889 | 0.931 | 0.891 | 0.898 | 0.954 | 1.01 | 0.904 | 0.777 | 0.605 | 1.03 | 1.06 | 0.997 | 0.888 | 0.976
5 | NCI-H3122 | 1.1 | 1.06 | 1.06 | 1.07 | 0.199 | 0.913 | 0.945 | 0.978 | 0.874 | 0.907 | 1.07 | 1.09 | 1.07 | 1.13 | 0.251 | 0.994 | 1.05 | 1.04 | 0.86 | 1.03
6 | HCC-827 | 0.996 | 1.06 | 1.03 | 1 | 1.01 | 1.07 | 1.1 | 1.02 |  | 0.966 | 0.955 | 1.01 | 1.01 | 0.959 | 0.892 | 1.04 | 1.04 | 0.934 | 0.827 | 1.01
7 | HARA | 1.28 | 1.17 | 1.36 | 1.17 | 0.12 | 0.91 | 0.938 | 0.758 |  | 0.932 | 0.993 | 0.85 | 1.32 | 1.07 | 0.207 | 1.11 | 1.08 | 1.21 | 0.666 | 1.15
8 | NCI-H441 | 0.764 | 0.477 | 0.587 | 0.238 | 0.218 | 0.928 | 1.18 | 0.834 | 0.835 | 0.492 | 0.465 | 0.771 | 0.346 | 0.163 | 0.173 | 0.398 | 0.428 | 0.455 | 0.586 | 0.413

From the supplement of paper PMC10307832
